# Measured values as given in patent US8283361B2 (AstraZeneca AB, priority 2008, dated 2012).
# Biological target: S. aureus GyrB ATPase (Staphylococcus aureus, UniProt P0A0K8)
# Test: biochemical
# Conditions: compound at 1 μM; one value per test if tested more than once; read-out: % Inhibition of S. aureus GyrB ATPase
# Outline: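 IC50 values derive from 10-point titrations of compound (in DMSO). Phosphate formed from 250 μM ATP was quantified by acidic molybdate/malachite green after quenching.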
# S. aureus GyrB ATPase, sequence (P0A0K8 whole entry): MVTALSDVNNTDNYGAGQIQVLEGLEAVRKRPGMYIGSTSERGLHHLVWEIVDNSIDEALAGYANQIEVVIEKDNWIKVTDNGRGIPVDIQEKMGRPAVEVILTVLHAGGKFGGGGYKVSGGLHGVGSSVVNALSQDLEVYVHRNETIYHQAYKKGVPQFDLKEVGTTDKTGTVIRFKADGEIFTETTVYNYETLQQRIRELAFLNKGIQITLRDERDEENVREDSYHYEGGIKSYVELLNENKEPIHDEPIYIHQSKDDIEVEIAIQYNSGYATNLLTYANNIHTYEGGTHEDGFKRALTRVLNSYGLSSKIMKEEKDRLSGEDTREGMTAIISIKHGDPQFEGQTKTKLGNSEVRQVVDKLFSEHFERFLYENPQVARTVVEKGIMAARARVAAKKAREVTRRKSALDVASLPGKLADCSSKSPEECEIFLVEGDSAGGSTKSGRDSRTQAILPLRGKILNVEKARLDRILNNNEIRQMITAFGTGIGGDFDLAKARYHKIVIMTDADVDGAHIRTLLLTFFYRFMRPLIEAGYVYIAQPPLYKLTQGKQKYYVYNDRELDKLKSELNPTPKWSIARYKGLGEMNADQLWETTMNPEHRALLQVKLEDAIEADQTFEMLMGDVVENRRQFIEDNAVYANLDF
# S. aureus GyrB ATPase, sequence (P0AES4 whole entry, further chain): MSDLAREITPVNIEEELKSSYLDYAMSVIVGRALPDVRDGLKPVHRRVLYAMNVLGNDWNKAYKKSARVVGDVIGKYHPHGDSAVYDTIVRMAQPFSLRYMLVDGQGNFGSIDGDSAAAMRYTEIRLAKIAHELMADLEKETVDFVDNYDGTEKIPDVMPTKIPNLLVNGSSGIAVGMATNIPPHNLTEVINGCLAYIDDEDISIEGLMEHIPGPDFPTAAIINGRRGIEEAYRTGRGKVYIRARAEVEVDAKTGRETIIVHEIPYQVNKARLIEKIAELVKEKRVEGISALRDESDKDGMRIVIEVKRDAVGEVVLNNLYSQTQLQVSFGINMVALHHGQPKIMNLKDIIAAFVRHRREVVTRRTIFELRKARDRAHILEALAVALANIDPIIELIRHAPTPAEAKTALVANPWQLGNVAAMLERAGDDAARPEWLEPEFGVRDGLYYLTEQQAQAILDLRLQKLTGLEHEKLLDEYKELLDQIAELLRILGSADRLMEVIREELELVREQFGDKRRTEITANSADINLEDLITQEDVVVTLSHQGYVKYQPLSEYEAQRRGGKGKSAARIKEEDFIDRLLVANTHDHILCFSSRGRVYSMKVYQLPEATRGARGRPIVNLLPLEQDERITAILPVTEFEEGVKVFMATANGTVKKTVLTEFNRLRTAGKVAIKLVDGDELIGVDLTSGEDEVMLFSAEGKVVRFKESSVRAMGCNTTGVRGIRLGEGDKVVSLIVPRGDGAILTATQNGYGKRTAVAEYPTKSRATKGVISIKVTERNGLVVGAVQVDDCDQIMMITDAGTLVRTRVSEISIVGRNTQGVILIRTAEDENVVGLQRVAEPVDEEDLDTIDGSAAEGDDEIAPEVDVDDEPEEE
row,SMILES,inhibition at 1 µM [%]
1,"CCNC(=O)Nc1cc(-c2nc(C(F)(F)F)cs2)c(-c2ccc3c(=O)c(C(=O)O)cn(CC)c3c2)cn1 [Example 9, 1-ethyl-7-(6-(3-ethylureido)-4-(4-trifluoromethylthiazol-2-yl)pyridin-3-yl)-4-oxo-1,4-dihydroquinoline-3-carboxylic acid]",106
2,"CCNC(=O)Nc1cc(-c2nc(C(F)(F)F)cs2)c(-c2ccc3c(=O)c(C(=O)NCCCO)cn(CCC(C)C)c3c2)cn1 [Example 337, 7-{6-[(ethylcarbamoyl)amino]-4-[4-(trifluoromethyl)-1,3-thiazol-2-yl]pyridin-3-yl}-N-(3-hydroxypropyl)-1-(3-methylbutyl)-4-oxo-1,4-dihydroquinoline-3-carboxamide]",106
3,"CCNC(=O)Nc1cc(-c2nc(C(F)(F)F)cs2)c(-c2ccc3c(=O)c(C(=O)NCCN4CCN(C)CC4)cn(Cc4ccccc4)c3c2)cn1 [Example 358, 1-Benzyl-7-{6-[(ethylcarbamoyl)amino]-4-[4-(trifluoromethyl)-1,3-thiazol-2-yl]pyridin-3-yl}-N-[2-(4-methylpiperazin-1-yl)ethyl]-4-oxo-1,4-dihydroquinoline-3-carboxamide]",95
4,"CCNC(=O)Nc1cc(-c2nc(C(F)(F)F)cs2)c(-c2ccc3c(c2)c(=O)c(C(=O)O)cn3[C@H]2CCCC[C@@H]2N)cn1 [Example 314, 1-((1S,2S)-2-aminocyclohexyl)-6-(6-(3-ethylureido)-4-(4-(trifluoromethyl)thiazol-2-yl)pyridin-3-yl)-4-oxo-1,4-dihydroquinoline-3-carboxylic acid]",114
5,"CCCNC(=O)Nc1cc(-c2nc(C(F)(F)F)cs2)c(-c2ccc3c(c2)c(=O)c(C(=O)O)cn3[C@H](CO)CC(C)C)cn1 [Example 87, (S)-1-(1-hydroxy-4-methylpentan-2-yl)-4-oxo-6-(6-(3-propylureido)-4-(4-(trifluoromethyl)thiazol-2-yl)pyridin-3-yl)-1,4-dihydroquinoline-3-carboxylic acid]",96
6,"CCNC(=O)Nc1cc(-c2nc(C(F)(F)F)cs2)c(-c2ccc3c(=O)c(C(=O)O)cn(CCO)c3c2)cn1 [Example 30, 7-{6-[(ethylcarbamoyl)amino]-4-[4-(trifluoromethyl)-1,3-thiazol-2-yl]pyridin-3-yl}-1-(2-hydroxyethyl)-4-oxo-1,4-dihydroquinoline-3-carboxylic acid]",95
7,"CCCNC(=O)Nc1cc(-c2nc(C(F)(F)F)cs2)c(-c2ccc3c(c2)c(=O)c(C(=O)O)cn3CCOC)cn1 [Example 191, 1-(2-methoxyethyl)-4-oxo-6-(6-(3-propylureido)-4-(4-(trifluoromethyl)thiazol-2-yl)pyridin-3-yl)-1,4-dihydroquinoline-3-carboxylic acid]",94
8,"CCNC(=O)Nc1cc(-c2nc(C(F)(F)F)cs2)c(-c2ccc3c(c2)c(=O)c(C(=O)O)cn3CC(C)N(C)C)cn1 (stereo not drawn) [Example 277, 1-(2-(dimethylamino)propyl)-6-(6-(3-ethylureido)-4-(4-(trifluoromethyl)thiazol-2-yl)pyridin-3-yl)-4-oxo-1,4-dihydroquinoline-3-carboxylic acid]",103
9,"CCCNC(=O)Nc1cc(-c2nc(C(F)(F)F)cs2)c(-c2ccc3c(c2)c(=O)c(C(=O)N2CCNCC2)cn3CCN(C)C)cn1 [Example 161, 1-(5-(1-(2-(dimethylamino)ethyl)-4-oxo-3-(piperazine-1-carbonyl)-1,4-dihydroquinolin-6-yl)-4-(4-(trifluoromethyl)thiazol-2-yl)pyridin-2-yl)-3-propylurea]",101
10,"CCNC(=O)Nc1cc(-c2nc(C(F)(F)F)cs2)c(-c2ccc3c(c2)c(=O)c(C(=O)O)cn3C[C@@H]2CCCO2)cn1 [Example 88, (S)-6-(6-(3-ethylureido)-4-(4-(trifluoromethyl)thiazol-2-yl)pyridin-3-yl)-4-oxo-1-((tetrahydrofuran-2-yl)methyl)-1,4-dihydroquinoline-3-carboxylic acid]",90
11,"CCNC(=O)Nc1cc(-c2nc(C(F)(F)F)cs2)c(-c2ccc3c(=O)c(C(=O)NCCN(C)C)cn(CCC(C)C)c3c2)cn1 [Example 338, N-[2-(dimethylamino)ethyl]-7-{6-[(ethylcarbamoyl)amino]-4-[4-(trifluoromethyl)-1,3-thiazol-2-yl]pyridin-3-yl}-1-(3-methylbutyl)-4-oxo-1,4-dihydroquinoline-3-carboxamide]",99
12,"CCCNC(=O)Nc1cc(-c2nc(C(F)(F)F)cs2)c(-c2ccc3c(c2)c(=O)c(C(=O)N2CCN(C(C)=O)CC2)cn3C2CN(C)C2)cn1 [Example 168, 1-(5-(3-(4-acetylpiperazine-1-carbonyl)-1-(1-methylazetidin-3-yl)-4-oxo-1,4-dihydroquinolin-6-yl)-4-(4-(trifluoromethyl)thiazol-2-yl)pyridin-2-yl)-3-propylurea]",102
13,"CCNC(=O)Nc1cc(-c2nc(C(F)(F)F)cs2)c(-c2ccc3c(=O)c(C(=O)NCCN4CCOCC4)cn(CCO)c3c2)cn1 [Example 367, 7-{6-[(ethylcarbamoyl)amino]-4-[4-(trifluoromethyl)-1,3-thiazol-2-yl]pyridin-3-yl}-1-(2-hydroxyethyl)-N-[2-(morpholin-4-yl)ethyl]-4-oxo-1,4-dihydroquinoline-3-carboxamide]",100
14,"CCCNC(=O)Nc1cc(-c2nc(C(F)(F)F)cs2)c(-c2ccc3c(c2)c(=O)c(C(=O)N2CCN(S(=O)(=O)N(C)C)CC2)cn3C2CN(C)C2)cn1 [Example 164, N,N-dimethyl-4-(1-(1-methylazetidin-3-yl)-4-oxo-6-(6-(3-propylureido)-4-(4-(trifluoromethyl)thiazol-2-yl)pyridin-3-yl)-1,4-dihydroquinoline-3-carbonyl)piperazine-1-sulfonamide]",107
15,"CCNC(=O)Nc1cc(-c2nc(C(F)(F)F)cs2)c(-c2ccc3c(=O)c(C(=O)NCCN4CCOCC4)cn(Cc4cccnc4)c3c2)cn1 [Example 361, 7-{6-[(ethylcarbamoyl)amino]-4-[4-(trifluoromethyl)-1,3-thiazol-2-yl]pyridin-3-yl}-N-[2-(morpholin-4-yl)ethyl]-4-oxo-1-(pyridin-3-ylmethyl)-1,4-dihydroquinoline-3-carboxamide]",97
16,"CCCNC(=O)Nc1cc(-c2nc(C(F)(F)F)cs2)c(-c2ccc3c(c2)c(=O)c(C(=O)NCCN(C)C)cn3CCC2CCOCC2)cn1 [Example 232, N-(2-(dimethylamino)ethyl)-4-oxo-6-(6-(3-propylureido)-4-(4-(trifluoromethyl)thiazol-2-yl)pyridin-3-yl)-1-(2-(tetrahydro-2H-pyran-4-yl)ethyl)-1,4-dihydroquinoline-3-carboxamide]",98
17,"CCCNC(=O)Nc1cc(-c2nc(C(F)(F)F)cs2)c(-c2ccc3c(c2)c(=O)c(C(=O)NCCO)cn3C2CCOCC2)cn1 [Example 206, N-(2-hydroxyethyl)-4-oxo-6-(6-(3-propylureido)-4-(4-(trifluoromethyl)thiazol-2-yl)pyridin-3-yl)-1-(tetrahydro-2H-pyran-4-yl)-1,4-dihydroquinoline-3-carboxamide]",92
18,"CCNC(=O)Nc1cc(-c2nc(C(F)(F)F)cs2)c(-c2ccc3c(=O)c(C(=O)NCCN4CCOCC4)cn(CC(C)C)c3c2)cn1 [Example 345, 7-{6-[(ethylcarbamoyl)amino]-4-[4-(trifluoromethyl)-1,3-thiazol-2-yl]pyridin-3-yl}-1-(2-methylpropyl)-N-[2-(morpholin-4-yl)ethyl]-4-oxo-1,4-dihydroquinoline-3-carboxamide]",98
19,"CCNC(=O)Nc1cc(-c2nc(C(F)(F)F)cs2)c(-c2ccc3c(c2)c(=O)c(C(=O)O)cn3C[C@@H]2CCN(CCN3CCOCC3)C2)cn1 [Example 237, (R)-6-(6-(3-ethylureido)-4-(4-(trifluoromethyl)thiazol-2-yl)pyridin-3-yl)-1-((1-(2-morpholinoethyl)pyrrolidin-3-yl)methyl)-4-oxo-1,4-dihydroquinoline-3-carboxylic acid]",103
20,"CCCNC(=O)Nc1cc(-c2nc(C(F)(F)F)cs2)c(-c2ccc3c(c2)c(=O)c(C(=O)O)cn3[C@H](CO)C(C)(C)C)cn1 [Example 84, (S)-1-(1-hydroxy-3,3-dimethylbutan-2-yl)-4-oxo-6-(6-(3-propylureido)-4-(4-(trifluoromethyl)thiazol-2-yl)pyridin-3-yl)-1,4-dihydroquinoline-3-carboxylic acid]",95
21,"CCNC(=O)Nc1cc(-c2nc(C(F)(F)F)cs2)c(-c2cc3c4c(c2)c(=O)c(C(=O)OCC)cn4CCO3)cn1 [Example 48, ethyl 9-(6-(3-ethylureido)-4-(4-trifluoromethylthiazol-2-yl)pyridin-3-yl)-7-oxo-3,7-dihydro-2H-[1,4]oxazino[2,3,4-ij]quinoline-6-carboxylate]",106
22,"CCNC(=O)Nc1cc(-c2nc(C(F)(F)F)cs2)c(-c2ccc3c(c2)c(=O)c(C(=O)NC)cn3[C@H](C(=O)O)C(C)C)cn1 [Example 130, (S)-2-(6-(6-(3-ethylureido)-4-(4-(trifluoromethyl)thiazol-2-yl)pyridin-3-yl)-3-(methylcarbamoyl)-4-oxoquinolin-1(4H)-yl)-3-methylbutanoic acid]",101
23,"CCNC(=O)Nc1cc(-c2nc(C(F)(F)F)cs2)c(-c2ccc3c(c2)c(=O)c(C(=O)O)cn3[C@H]2CCCN(C)C2)cn1 [Example 248, (S)-6-(6-(3-ethylureido)-4-(4-(trifluoromethyl)thiazol-2-yl)pyridin-3-yl)-1-(1-methylpiperidin-3-yl)-4-oxo-1,4-dihydroquinoline-3-carboxylic acid]",103

# System: Streptococcus pneumoniae
# Test: Bacterial susceptibility testing in liquid media (MIC)
# Format: cell-based
# Conditions: against Streptococcus pneumoniae; lowest concentration reducing growth by 80% or more
# Excerpt: Compounds may be tested for antimicrobial activity by susceptibility testing in liquid media. Compounds may be dissolved in dimethylsulfoxide and tested in 10 doubling dilutions in the susceptibility assays. The organisms used in the assay may be grown overnight on suitable agar media and then suspended in a liquid medium appropriate for the growth of the organism. The suspension can be a 0.5 McFarland and a further 1 in 10 dilution can be made into the same liquid medium to prepare the final organism suspension in 100 μL. Plates can be incubated under appropriate conditions at 37° C. for 24 hrs prior to reading. The Minimum Inhibitory Concentration (MIC) may be determined as the lowest drug concentration able to reduce growth by 80% or more.
row,SMILES,MIC [µM]
1,"CCNC(=O)Nc1cc(-c2nc(C(F)(F)F)cs2)c(-c2ccc3c(=O)c(C(=O)O)cn(CC)c3c2)cn1 [Example 9, 1-ethyl-7-(6-(3-ethylureido)-4-(4-trifluoromethylthiazol-2-yl)pyridin-3-yl)-4-oxo-1,4-dihydroquinoline-3-carboxylic acid]",0.02
